Tests used:
[1] = test system: young oophorectomized rats; assay: Estrogenic activity (uterine wet weight) in young oophorectomized rats; type: in vivo, Sprague-Dawley rats
Protocol: Sprague-Dawley rats, 33 days old and 11 days after oophorectomy for elimination of endogenous estrogenic activity, were used in groups of 6 to 7 animals. Compound (I) was suspended in a 1% aqueous solution of hydroxypropylcellulose and administered orally for 3 days, while as a representative example of the conventional estrogen drug, estrone was dissolved in sesame oil and administered subcutaneously for 3 days. On the fourth day, each animal was autopsied and its uterine wet weight was recorded.
Sprague-Dawley rats, 33 days old and 11 days after oophorectomy for elimination of endogenous estrogenic activity, were used in groups of 7 animals. Compound (II) was suspended in a 1% aqueous solution of hydroxypropylcellulose and administered orally.

[2] = test system: rat fetal long bone culture; assay: Bone resorption inhibiting activity in rat fetal long bone culture (45Ca release, method of Raisz); type: cell-based, Sprague-Dawley rat; settings: for ^45Ca (%) released: incubated 3 days, mean ± S.D. of six bones; for bone resorption: result in words, summary of Table 3
Protocol: Determination of bone resorption was performed by the method of Raisz [J. Clin. Invest. 44, 103-116 (1965)]. rhus, a Sprague-Dawley rat on the 19th day of pregnancy was subcutaneously injected with 50 p Ci of 45Ca (isotope of calcium, CaCl2 solution), and was laparotomized on the following day. The embryos were aseptically taken out, the forelimbs (radius and ulna) were cut off from the trunk under a binocular dissecting microscope, and the connective tissue and cartilage were removed as much as possible to prepare bone samples. Each bone sample was preincubated at 37°C for 24 hours in 0.6 mℓ of the medium containing 2 mg/mℓ of bovine serum albumin in BGJb medium (Fitton-Jackson modification) [GIBCO Laboratories, Grand Island, NY 14072 U.S.A.]. Then, the sample was further incubated for 3 days in the same medium as above in which 10 µg/mℓ or 25 µg/mℓ of compound (I) or 10 µg/mℓ of compound (II) had been incorporated. Then, the radioactivity of 45Ca in the medium and that of 45Ca in the bone were measured and the percentage (%) of ^45Ca released from the bone into the medium was calculated by the following formula.
Percentage (%) of 45 Ca released from bone into medium [formula]
As control, the bones of the embryos from the same litter were similarly incubated in the absence of compound (I) or (II) for 3 days.

[3] = test system: rat fetal long bone culture; assay: Inhibition of the bone resorption potentiating action of parathyroid hormone in rat fetal long bone culture; type: cell-based
Protocol: The bone samples prepared in the same manner as Test Example 3 were pre-incubated for 24 hours in the same medium as that prepared in Test Example 3 which contains bovine serum album in BGJb medium (Fitton-Jackson modification). Then, in the concomitant presence of PTH (parathyroid hormone, a bone resorption stimulant) and compound (II), the samples were further incubated for 3 days and the percentage of ^45Ca released into the medium was calculated by means of the same formula as that in Test Example 3. As control experiments, the same determination was made for a control group using the medium supplemented with PTH alone.

ICR mice = assay: Acute toxicity in mice; type: in vivo; settings: observed 14 days, LD50 could not be calculated
Protocol: (§1) Five-week-old ICR mice and 5-week-old Sprague-Dawley rats were respectively used in groups of 10 males and 10 females, and suspensions of compound (I) or compound (II) in olive oil were administered orally [2,500, 5,000 and 10,000 mg/kg of each compound] or subcutaneously [1,250, 2,500 and 5,000 mg/kg]. The animals were kept under observation for 14 days.

Sprague-Dawley rats = assay: Acute toxicity in rats; type: in vivo; settings: observed 14 days, LD50 could not be calculated
Protocol: as §1

[4] = orally 2,500, 5,000 and 10,000 mg/kg in olive oil
[5] = subcutaneously 1,250, 2,500 and 5,000 mg/kg in olive oil

With O=c1c(-c2ccc(O)cc2)coc2cc(O)ccc12 [Compound (II), 7,4'-dihydroxy-isoflavone] the “Uterine wet weight (mg ± S.D.)” value ([1]; Test Example 2, daily dose 6.25 mg/kg orally, control group 31.1 ± 1.1) was 33.2 ± 0.8 mg, the “Uterine wet weight (mg ± S.D.)” value ([1]; Test Example 2, daily dose 25 mg/kg orally, control group 31.1 ± 1.1) was 32.8 ± 1.0 mg and the “Uterine wet weight (mg ± S.D.)” value ([1]; Test Example 2, daily dose 100 mg/kg orally, control group 31.1 ± 1.1) was 35.3 ± 1.3 mg. The “Uterine wet weight (mg ± S.D.)” value ([1]; Test Example 2, daily dose 400 mg/kg orally, control group 31.1 ± 1.1) was 62.3 ± 6.0 mg, the “uterine weight increasing activity” value ([1]; orally, dose level of 400 mg/kg) was “showed mild uterine weight increasing activity” and the “^45Ca (%) released” value ([2]; 10 µg/mℓ, control group 19.9 ± 5.0) was 15.9 ± 1.3 %. For the same compound, the bone resorption [2] was “suppressed bone resorption”, the “^45Ca (%) released” value ([3]; 10 µg/ml in concomitant presence of PTH, incubated 3 days, control group (PTH alone) 30.8±4.3) was 23.5±3.4 % and the PTH-stimulated bone resorption ([3]; result in words, summary of Table 4) was “suppressed PTH-stimulated bone resorption”. For the same compound, the “deaths and toxic symptoms” value (ICR mice; [4]) was “None of the groups showed deaths nor toxic symptoms”, the “deaths and toxic symptoms” value (ICR mice; [5]) was “None of the groups showed deaths nor toxic symptoms” and the “deaths and toxic symptoms” value (Sprague-Dawley rats; [4]) was “None of the groups showed deaths nor toxic symptoms”. For the same compound, the “deaths and toxic symptoms” value (Sprague-Dawley rats; [5]) was “None of the groups showed deaths nor toxic symptoms”.
In the case of C[C@]12CC[C@@H]3c4ccc(O)cc4CC[C@H]3[C@@H]1CCC2=O [Estrone, estrone, reference compound], the “Uterine wet weight (mg ± S.D.)” value ([1]; daily dose 0.0025 mg/kg subcutaneously in sesame oil for 3 days, control group 35.0 ± 1.0) is reported as 101.7 ± 4.6 mg, the “Uterine wet weight (mg ± S.D.)” value ([1]; daily dose 0.005 mg/kg subcutaneously in sesame oil for 3 days, control group 35.0 ± 1.0) is reported as 159.8 ± 9.4 mg and the “Uterine wet weight (mg ± S.D.)” value ([1]; daily dose 0.01 mg/kg subcutaneously in sesame oil for 3 days, control group 35.0 ± 1.0) is reported as 223.3 ± 12.5 mg.
For O=c1c(-c2ccccc2)coc2cc(O)ccc12 [Compound (I), 7-hydroxy-isoflavone], the “Uterine wet weight (mg ± S.D.)” value ([1]; daily dose 6.25 mg/kg orally for 3 days, control group 35.0 ± 1.0) was 32.8 ± 1.1 mg, the “Uterine wet weight (mg ± S.D.)” value ([1]; daily dose 12.5 mg/kg orally for 3 days, control group 35.0 ± 1.0) was 33.4 ± 0.9 mg and the “Uterine wet weight (mg ± S.D.)” value ([1]; daily dose 25 mg/kg orally for 3 days, control group 35.0 ± 1.0) was 35.1 ± 0.8 mg. The “Uterine wet weight (mg ± S.D.)” value ([1]; daily dose 50 mg/kg orally for 3 days, control group 35.0 ± 1.0) was 35.3 ± 1.7 mg, the “Uterine wet weight (mg ± S.D.)” value ([1]; daily dose 100 mg/kg orally for 3 days, control group 35.0 ± 1.0) was 35.9 ± 1.0 mg and the “Uterine wet weight (mg ± S.D.)” value ([1]; daily dose 200 mg/kg orally for 3 days, control group 35.0 ± 1.0) was 57.9 ± 1.0 mg. For the same compound, the “Uterine wet weight (mg ± S.D.)” value ([1]; daily dose 400 mg/kg orally for 3 days, control group 35.0 ± 1.0) was 70.4 ± 6.7 mg, the “uterine weight increasing effect, dose-response curve” value ([1]; orally, daily dose levels of 200 mg/kg and 400 mg/kg) was “produced uterine weight increasing effect with a dose-response curve of moderate gradient” and the “^45Ca (%) released” value ([2]; 10 µg/mℓ, control group 20.6 ± 3.8) was 16.5 ± 2.5 %. The “^45Ca (%) released” value ([2]; 25 µg/mℓ, control group 20.6 ± 3.8) was 13.5 ± 2.5 % and the bone resorption [2] was “suppressed bone resorption”.
